Source: patent US20210254272A1, “TEXTILES HAVING ANTIMICROBIAL PROPERTIES” (Livinguard AG, priority 2015, published 2021)

Assay: Leaching test: 100 g fabric soaked in 10 liters stagnant distilled water, 3 days (72 hours)
Type: physicochemical
Details: for Leaching of active ingredients: exhaust 80° C. 60 min, cured 180° C. 2 min, post wash
Experimental: (§1) The test procedure for leaching was as follows: 100 g (grams) of fabric as well as control fabrics were soaked in 10 liters of stagnant distilled water in a closed wide mouth jar. After 3 days (72 hours), the water samples were tested for leached substances as per standard analytical methods.
as §1, with “methods. A weight of 100 g fabric was chosen because in the preferred embodiment of the water filter as described further below, each filter comprises a strip of fabric with 210 g/m^2, 3 meters long and 0.16 meters wide, which corresponds to 100 g of fabric.” for “methods.”

Silver
Leaching of active ingredients (in ppm) (0.2% each in mixture (o.w.f), exhaust 80° C., 60 min, curing 180° C., 2 min, unwashed): 7 ppm
Leaching of active ingredients (in ppm) (0.5% each in mixture (o.w.f), exhaust 80° C., 60 min, curing 180° C., 2 min, unwashed): 11 ppm
Leaching of active ingredients (in ppm) (1.0% each in mixture (o.w.f), exhaust 80° C., 60 min, curing 180° C., 2 min, unwashed): 18 ppm
Leeching in ppm (Exhaust + Wash + pad + Wash, exhaust 0.1% o.w.f. each in mixture, 1 gm/liter pad): 0.3 ppm
Leeching in ppm (Exhaust + Wash + pad + Wash, exhaust 0.1% o.w.f. each in mixture, 5 gm/liter pad): 0.5 ppm
Leeching in ppm (Exhaust + Wash + pad + Wash, exhaust 0.1% o.w.f. each in mixture, 10 gm/liter pad): 0.6 ppm
Leeching in ppm (Exhaust + Wash + pad + Wash, exhaust 0.25% o.w.f. each in mixture, 1 gm/liter pad): 3 ppm
Leeching in ppm (Exhaust + Wash + pad + Wash, exhaust 0.25% o.w.f. each in mixture, 5 gm/liter pad): 7 ppm
Leeching in ppm (Exhaust + Wash + pad + Wash, exhaust 0.25% o.w.f. each in mixture, 10 gm/liter pad): 16 ppm
Leeching in ppm (Exhaust + Wash + pad + Wash, exhaust 0.5 (% o.w.f) each in mixture, 1 gm/liter pad): 8 ppm
Leeching in ppm (Exhaust + Wash + pad + Wash, exhaust 0.5 (% o.w.f) each in mixture, 5 gm/liter pad): 14 ppm
Leeching in ppm (Exhaust + Wash + pad + Wash, exhaust 0.5 (% o.w.f) each in mixture, 10 gm/liter pad): 22 ppm
Leeching in ppm (Exhaust + Wash + pad + Wash, exhaust 1.0% o.w.f. each in mixture, 1 gm/liter pad): 14 ppm
Leeching in ppm (Exhaust + Wash + pad + Wash, exhaust 1.0% o.w.f. each in mixture, 5 gm/liter pad): 23 ppm
Leeching in ppm (Exhaust + Wash + pad + Wash, exhaust 1.0% o.w.f. each in mixture, 10 gm/liter pad): 28 ppm
Leeching in ppm (Exhaust + pad + Wash, exhaust 0.1% o.w.f. each in mixture, 1 gm/liter pad): 145 ppm
Leeching in ppm (Exhaust + pad + Wash, exhaust 0.1% o.w.f. each in mixture, 5 gm/liter pad): 235 ppm
Leeching in ppm (Exhaust + pad + Wash, exhaust 0.1% o.w.f. each in mixture, 10 gm/liter pad): 254 ppm
Leeching in ppm (Exhaust + pad + Wash, exhaust 0.25% o.w.f. each in mixture, 1 gm/liter pad): 223 ppm
Leeching in ppm (Exhaust + pad + Wash, exhaust 0.25% o.w.f. each in mixture, 5 gm/liter pad): 257 ppm
Leeching in ppm (Exhaust + pad + Wash, exhaust 0.25% o.w.f. each in mixture, 10 gm/liter pad): 534 ppm
Leeching in ppm (Exhaust + pad + Wash, exhaust 0.5 (% o.w.f) each in mixture, 1 gm/liter pad): 456 ppm
Leeching in ppm (Exhaust + pad + Wash, exhaust 0.5 (% o.w.f) each in mixture, 5 gm/liter pad): 573 ppm
Leeching in ppm (Exhaust + pad + Wash, exhaust 0.5 (% o.w.f) each in mixture, 10 gm/liter pad): 645 ppm
Leeching in ppm (Exhaust + pad + Wash, exhaust 1.0% o.w.f. each in mixture, 1 gm/liter pad): 534 ppm
Leeching in ppm (Exhaust + pad + Wash, exhaust 1.0% o.w.f. each in mixture, 5 gm/liter pad): 654 ppm
Leeching in ppm (Exhaust + pad + Wash, exhaust 1.0% o.w.f. each in mixture, 10 gm/liter pad): 849 ppm
Leeching in ppm (Exhaust + pad, exhaust 0.1% o.w.f. each in mixture, 1 gm/liter pad): 208 ppm
Leeching in ppm (Exhaust + pad, exhaust 0.1% o.w.f. each in mixture, 5 gm/liter pad): 298 ppm
Leeching in ppm (Exhaust + pad, exhaust 0.1% o.w.f. each in mixture, 10 gm/liter pad): 362 ppm
Leeching in ppm (Exhaust + pad, exhaust 0.25% o.w.f. each in mixture, 1 gm/liter pad): 320 ppm
Leeching in ppm (Exhaust + pad, exhaust 0.25% o.w.f. each in mixture, 5 gm/liter pad): 321 ppm
Leeching in ppm (Exhaust + pad, exhaust 0.25% o.w.f. each in mixture, 10 gm/liter pad): 387 ppm
Leeching in ppm (Exhaust + pad, exhaust 0.5 (% o.w.f) each in mixture, 1 gm/liter pad): 398 ppm
Leeching in ppm (Exhaust + pad, exhaust 0.5 (% o.w.f) each in mixture, 5 gm/liter pad): 453 ppm
Leeching in ppm (Exhaust + pad, exhaust 0.5 (% o.w.f) each in mixture, 10 gm/liter pad): 801 ppm
Leeching in ppm (Exhaust + pad, exhaust 1.0% o.w.f. each in mixture, 1 gm/liter pad): 595 ppm
Leeching in ppm (Exhaust + pad, exhaust 1.0% o.w.f. each in mixture, 5 gm/liter pad): 749 ppm
Leeching in ppm (Exhaust + pad, exhaust 1.0% o.w.f. each in mixture, 10 gm/liter pad): 1234 ppm
Leeching in ppm (Exhaust +Wash + pad, exhaust 0.1% o.w.f. each in mixture, 1 gm/liter pad): 86 ppm
Leeching in ppm (Exhaust +Wash + pad, exhaust 0.1% o.w.f. each in mixture, 5 gm/liter pad): 164 ppm
Leeching in ppm (Exhaust +Wash + pad, exhaust 0.1% o.w.f. each in mixture, 10 gm/liter pad): 254 ppm
Leeching in ppm (Exhaust +Wash + pad, exhaust 0.25% o.w.f. each in mixture, 1 gm/liter pad): 196 ppm
Leeching in ppm (Exhaust +Wash + pad, exhaust 0.25% o.w.f. each in mixture, 5 gm/liter pad): 212 ppm
Leeching in ppm (Exhaust +Wash + pad, exhaust 0.25% o.w.f. each in mixture, 10 gm/liter pad): 324 ppm
Leeching in ppm (Exhaust +Wash + pad, exhaust 0.5 (% o.w.f) each in mixture, 1 gm/liter pad): 375 ppm
Leeching in ppm (Exhaust +Wash + pad, exhaust 0.5 (% o.w.f) each in mixture, 5 gm/liter pad): 435 ppm
Leeching in ppm (Exhaust +Wash + pad, exhaust 0.5 (% o.w.f) each in mixture, 10 gm/liter pad): 578 ppm
Leeching in ppm (Exhaust +Wash + pad, exhaust 1.0% o.w.f. each in mixture, 1 gm/liter pad): 475 ppm
Leeching in ppm (Exhaust +Wash + pad, exhaust 1.0% o.w.f. each in mixture, 5 gm/liter pad): 546 ppm
Leeching in ppm (Exhaust +Wash + pad, exhaust 1.0% o.w.f. each in mixture, 10 gm/liter pad): 656 ppm
Leaching of active ingredients (in ppm) (exhaust 60° C., solution dosage 1% o.w.f, process time 60 min): 21 ppm
Leaching of active ingredients (in ppm) (exhaust 60° C., solution dosage 1% o.w.f, process time 90 min): 13 ppm
Leaching of active ingredients (in ppm) (exhaust 60° C., solution dosage 1% o.w.f, process time 120 min): 13 ppm
Leaching of active ingredients (in ppm) (exhaust 60° C., solution dosage 1% o.w.f, process time 180 min): 12 ppm
Leaching of active ingredients (in ppm) (exhaust 60° C., solution dosage 1% o.w.f, process time 240 min): 15 ppm
Leaching of active ingredients (mixture 0.2% o.w.f. each): 0.3 ppm
Leaching of active ingredients (mixture 0.5% o.w.f. each): 0.5 ppm
Leaching of active ingredients (mixture 1% o.w.f. each): 0.9 ppm
Leaching of active ingredients (in ppm) (exhaust 80° C., 1% o.w.f, 60 min, curing 170° C., curing dwell time 0.5 min): 28 ppm
Leaching of active ingredients (in ppm) (exhaust 80° C., 1% o.w.f, 60 min, curing 170° C., curing dwell time 1.0 min): 24 ppm
Leaching of active ingredients (in ppm) (exhaust 80° C., 1% o.w.f, 60 min, curing 170° C., curing dwell time 1.5 min): 21 ppm
Leaching of active ingredients (in ppm) (exhaust 80° C., 1% o.w.f, 60 min, curing 170° C., curing dwell time 2.0 min): 13 ppm
Leaching of active ingredients (in ppm) (exhaust 80° C., 1% o.w.f, 60 min, curing 170° C., curing dwell time 2.5 min): 19 ppm
Leaching of active ingredients (in ppm) (exhaust 80° C., 1% o.w.f, 60 min, curing 170° C., curing dwell time 3.0 min): 19 ppm
Leaching of active ingredients (in ppm) (exhaust 80° C., 1% o.w.f, 60 min, curing 180° C., curing dwell time 0.5 min): 21 ppm
Leaching of active ingredients (in ppm) (exhaust 80° C., 1% o.w.f, 60 min, curing 180° C., curing dwell time 1.0 min): 13 ppm
Leaching of active ingredients (in ppm) (exhaust 80° C., 1% o.w.f, 60 min, curing 180° C., curing dwell time 1.5 min): 13 ppm
Leaching of active ingredients (in ppm) (exhaust 80° C., 1% o.w.f, 60 min, curing 180° C., curing dwell time 2.0 min): 4 ppm
Leaching of active ingredients (in ppm) (exhaust 80° C., 1% o.w.f, 60 min, curing 180° C., curing dwell time 2.5 min): 12 ppm
Leaching of active ingredients (in ppm) (exhaust 80° C., 1% o.w.f, 60 min, curing 180° C., curing dwell time 3.0 min): 12 ppm
Leaching of active ingredients (in ppm) (exhaust 80° C., 1% o.w.f, 60 min, curing dwell time at 190° C. (title): 0.5 min): 18 ppm
Leaching of active ingredients (in ppm) (exhaust 80° C., 1% o.w.f, 60 min, curing dwell time at 190° C. (title): 1.0 min): 12 ppm
Leaching of active ingredients (in ppm) (exhaust 80° C., 1% o.w.f, 60 min, curing dwell time at 190° C. (title): 1.5 min): 10 ppm
Leaching of active ingredients (in ppm) (exhaust 80° C., 1% o.w.f, 60 min, curing dwell time at 190° C. (title): 2.0 min): 10 ppm
Leaching of active ingredients (in ppm) (exhaust 80° C., 1% o.w.f, 60 min, curing dwell time at 190° C. (title): 2.5 min): 24 ppm
Leaching of active ingredients (in ppm) (exhaust 80° C., 1% o.w.f, 60 min, curing dwell time at 190° C. (title): 3.0 min): 35 ppm
